Results from patent US20050049245A1, “Heteroaryl-ethanolamine derivatives as antiviral agents” (priority 2002, published 2005).

Key:
HSV polymerase = HSV polymerase (Human herpesvirus 1, UniProt P04293); assay: HSV polymerase assay (Table 1); format: biochemical; details: HSV polymerase; read-out: Polymerase IC50 HSV
HCMV polymerase = biological target: T1, HCMV polymerase (Human cytomegalovirus, UniProt P08546); assay: HCMV polymerase scintillation proximity assay (SPA); format: biochemical; details: HCMV polymerase, SPA; read-out: Polymerase IC50 HCMV
T1 construct: made in house; host or cells: recombinant baculovirus-infected SF-9 cells
Experimental: The HCMV polymerase assay is performed using a scintillation proximity assay (SPA) as described in several references, such as N. D. Cook, et al., Pharmaceutical Manufacturing International, pages 49-53 (1992); KY Takeuchi, Laboratory Practice, September issue (1992); U.S. Pat. No. 4,568,649 (1986); which are incorporated by reference herein. Reactions are performed in 96-well plates. The assay is conducted in 100 yl volume with 5.4 mM HEPES (pH 7.5), 11.7 mM KCl, 4.5 mM MgCl2, 0.36 mg/ml BSA, and 90 nM ^3H-dTTP. Assays are run with and without CHAPS, (3-[(3-Cholamidopropyl)-dimethylammonio]-1-propane-sulfonate) at a final concentration of 2 mM. HCMV polymerase is diluted in enzyme dilution buffer containing 50% glycerol, 250 mM NaCl, 10 mM HEPES (pH 7.5), 100 μg/ml BSA, and 0.01% sodium azide. The HCMV polymerase, which is expressed in recombinant baculovirus-infected SF-9 cells and purified according to literature procedures, is added at 10% (or 10 μl) of the final reaction volume, i.e., 100 μl. Compounds are diluted in 50% DMSO and 10 μl are added to each well. Control wells contain an equivalent concentration of DMSO. Unless noted otherwise, reactions are initiated via the addition of 6 nM biotinylated poly(dA)-oligo(dT) template/primer to reaction mixtures containing the enzyme, substrate, and compounds of interest. Plates are incubated in a 25° C. or 37° C. H2O bath and terminated via the addition of 40 μl/reaction of 0.5 M EDTA (pH 8) per well. Reactions are terminated within the time-frame during which substrate incorporation is linear and varied depending upon the enzyme and conditions used, i.e., 30 min. for HCMV polymerase. Ten (10) μl of streptavidin-SPA beads (20 mg/ml in PBS/10% glycerol) are added following termination of the reaction. Plates are incubated 10 min. at 37° C., then equilibrated to room temperature, and counted on a Packard Topcount. Linear regressions are performed and IC50's are calculated using computer software.
A modified version of the above HCMV polymerase assay is performed as described above, but with the following changes: Compounds are diluted in 100% DMSO until final dilution into assay buffer. In the previous assay, compounds are diluted in 50% DMSO. 4.5 mM Dithiothreitol (DTT) is added to the polymerase buffer.
All results are listed as Polymerase IC50 ([…]) values. In Table 1, the term “n.d.” refers to activity data not determined.

VZV polymerase = VZV polymerase (Varicella-zoster virus, UniProt P09252); assay: VZV polymerase assay (Table 1); format: biochemical; details: VZV polymerase; read-out: Polymerase IC50 VZV
Chain of VZV polymerase (P09252 whole entry): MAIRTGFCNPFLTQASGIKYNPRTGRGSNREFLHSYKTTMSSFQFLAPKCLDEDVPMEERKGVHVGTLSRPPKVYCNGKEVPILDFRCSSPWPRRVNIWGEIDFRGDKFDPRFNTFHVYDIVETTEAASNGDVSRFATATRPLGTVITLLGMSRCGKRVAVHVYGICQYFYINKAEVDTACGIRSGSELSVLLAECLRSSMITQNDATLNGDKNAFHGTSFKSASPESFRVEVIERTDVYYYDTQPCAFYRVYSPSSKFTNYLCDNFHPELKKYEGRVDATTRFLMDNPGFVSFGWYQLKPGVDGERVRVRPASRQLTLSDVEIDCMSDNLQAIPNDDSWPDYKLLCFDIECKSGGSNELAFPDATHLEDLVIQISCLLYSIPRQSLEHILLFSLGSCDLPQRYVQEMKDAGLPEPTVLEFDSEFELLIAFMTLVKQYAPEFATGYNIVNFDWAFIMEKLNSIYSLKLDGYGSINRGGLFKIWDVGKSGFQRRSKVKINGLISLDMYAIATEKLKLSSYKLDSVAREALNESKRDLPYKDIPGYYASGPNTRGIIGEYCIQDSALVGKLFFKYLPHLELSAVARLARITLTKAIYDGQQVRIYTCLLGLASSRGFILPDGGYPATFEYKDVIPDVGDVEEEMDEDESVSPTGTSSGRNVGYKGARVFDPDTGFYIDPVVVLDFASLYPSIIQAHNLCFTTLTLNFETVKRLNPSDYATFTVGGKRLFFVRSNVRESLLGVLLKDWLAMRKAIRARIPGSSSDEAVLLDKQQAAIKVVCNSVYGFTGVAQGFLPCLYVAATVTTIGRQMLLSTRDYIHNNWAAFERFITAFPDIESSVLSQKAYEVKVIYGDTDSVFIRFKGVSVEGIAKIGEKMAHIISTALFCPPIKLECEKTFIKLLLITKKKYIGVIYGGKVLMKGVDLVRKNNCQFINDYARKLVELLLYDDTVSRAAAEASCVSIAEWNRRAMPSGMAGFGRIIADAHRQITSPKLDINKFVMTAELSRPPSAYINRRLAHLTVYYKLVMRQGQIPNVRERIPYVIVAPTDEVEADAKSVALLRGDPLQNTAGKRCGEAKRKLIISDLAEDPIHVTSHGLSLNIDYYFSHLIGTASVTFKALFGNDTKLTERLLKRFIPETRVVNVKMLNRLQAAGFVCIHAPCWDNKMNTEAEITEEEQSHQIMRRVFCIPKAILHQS

T1 sequence (P08546 whole entry): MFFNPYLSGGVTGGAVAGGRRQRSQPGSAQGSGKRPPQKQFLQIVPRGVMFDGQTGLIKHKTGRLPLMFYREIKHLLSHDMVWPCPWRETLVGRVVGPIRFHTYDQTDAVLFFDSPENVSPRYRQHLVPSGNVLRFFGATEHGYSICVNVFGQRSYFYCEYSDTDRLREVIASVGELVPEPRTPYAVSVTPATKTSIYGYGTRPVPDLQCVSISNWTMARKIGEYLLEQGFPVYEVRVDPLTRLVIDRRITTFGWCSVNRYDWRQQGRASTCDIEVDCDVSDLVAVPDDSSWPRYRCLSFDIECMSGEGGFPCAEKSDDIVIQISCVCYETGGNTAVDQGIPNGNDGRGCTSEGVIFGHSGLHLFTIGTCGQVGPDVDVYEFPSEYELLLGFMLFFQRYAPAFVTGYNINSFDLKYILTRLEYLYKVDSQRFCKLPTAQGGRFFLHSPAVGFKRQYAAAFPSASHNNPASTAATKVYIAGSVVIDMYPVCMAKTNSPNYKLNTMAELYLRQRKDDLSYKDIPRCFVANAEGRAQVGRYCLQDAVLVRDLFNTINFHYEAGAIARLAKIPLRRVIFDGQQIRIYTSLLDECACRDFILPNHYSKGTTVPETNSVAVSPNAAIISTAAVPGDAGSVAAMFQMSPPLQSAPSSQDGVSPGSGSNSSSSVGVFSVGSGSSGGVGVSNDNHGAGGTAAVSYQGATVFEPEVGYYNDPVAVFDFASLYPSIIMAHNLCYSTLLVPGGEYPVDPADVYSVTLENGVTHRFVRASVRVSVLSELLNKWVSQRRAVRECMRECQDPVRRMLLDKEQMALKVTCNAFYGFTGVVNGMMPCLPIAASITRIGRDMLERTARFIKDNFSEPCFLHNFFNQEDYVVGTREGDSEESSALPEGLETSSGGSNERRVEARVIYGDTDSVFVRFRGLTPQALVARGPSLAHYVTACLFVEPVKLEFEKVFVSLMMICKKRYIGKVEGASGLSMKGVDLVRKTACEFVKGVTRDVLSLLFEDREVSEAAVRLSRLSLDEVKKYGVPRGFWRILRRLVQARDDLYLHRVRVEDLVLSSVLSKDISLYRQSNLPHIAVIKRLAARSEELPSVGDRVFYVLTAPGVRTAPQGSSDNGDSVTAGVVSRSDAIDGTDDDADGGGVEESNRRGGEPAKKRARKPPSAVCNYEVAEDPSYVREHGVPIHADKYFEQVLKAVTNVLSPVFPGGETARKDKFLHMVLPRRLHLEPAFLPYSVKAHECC
Chain of HSV polymerase (P04293 whole entry): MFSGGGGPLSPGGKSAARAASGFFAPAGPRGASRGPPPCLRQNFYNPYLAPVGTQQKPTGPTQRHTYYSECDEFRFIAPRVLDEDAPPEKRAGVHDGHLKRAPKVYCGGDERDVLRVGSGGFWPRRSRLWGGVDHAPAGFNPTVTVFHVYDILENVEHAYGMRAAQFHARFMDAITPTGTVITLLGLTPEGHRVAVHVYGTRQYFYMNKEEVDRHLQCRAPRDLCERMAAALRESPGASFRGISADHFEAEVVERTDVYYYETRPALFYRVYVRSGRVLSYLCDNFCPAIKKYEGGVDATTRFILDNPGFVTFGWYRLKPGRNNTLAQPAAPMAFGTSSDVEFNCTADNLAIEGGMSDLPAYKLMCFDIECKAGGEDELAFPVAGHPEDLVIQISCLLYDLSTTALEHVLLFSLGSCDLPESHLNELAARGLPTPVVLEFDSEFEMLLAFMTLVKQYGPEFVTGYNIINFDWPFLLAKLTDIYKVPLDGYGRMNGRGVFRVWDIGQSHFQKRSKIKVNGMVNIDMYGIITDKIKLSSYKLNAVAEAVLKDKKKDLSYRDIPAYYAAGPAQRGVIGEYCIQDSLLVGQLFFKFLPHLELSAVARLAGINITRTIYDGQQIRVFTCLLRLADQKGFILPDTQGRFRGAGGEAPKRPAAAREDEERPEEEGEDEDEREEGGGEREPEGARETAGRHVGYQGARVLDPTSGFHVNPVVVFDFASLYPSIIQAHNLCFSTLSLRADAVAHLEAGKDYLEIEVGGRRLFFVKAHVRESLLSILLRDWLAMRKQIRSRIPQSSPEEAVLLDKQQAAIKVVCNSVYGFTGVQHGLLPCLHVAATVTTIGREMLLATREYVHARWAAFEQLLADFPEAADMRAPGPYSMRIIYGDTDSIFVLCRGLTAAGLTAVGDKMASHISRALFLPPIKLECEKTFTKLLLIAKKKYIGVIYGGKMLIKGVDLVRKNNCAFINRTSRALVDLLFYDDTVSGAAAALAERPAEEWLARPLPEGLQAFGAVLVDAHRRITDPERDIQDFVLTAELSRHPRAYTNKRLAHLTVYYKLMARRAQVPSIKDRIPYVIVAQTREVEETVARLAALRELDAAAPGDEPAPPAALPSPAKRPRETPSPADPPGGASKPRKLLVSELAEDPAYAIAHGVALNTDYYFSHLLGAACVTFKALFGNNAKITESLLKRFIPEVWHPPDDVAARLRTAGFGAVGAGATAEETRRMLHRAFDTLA

CCn1cc(C(=O)NCc2ccc(Cl)cc2)c(=O)c2cc(CN(C)C[C@@H](O)c3ccco3)sc21 [Example 20, N-(4-Chlorobenzyl)-7-ethyl-2-((((2R)-2-(2-furyl)-2-hydroxyethyl)(methyl)amino)-methyl)-4-oxo-4,7-dihydrothieno [2,3-b]pyridine-5-carboxamide]
IC50 (HSV polymerase): 460 nM | IC50 (HCMV polymerase): 220 nM | melting point: 123 to 127 °C | IC50 (VZV polymerase): 200 nM
